Literature values in patent US8642577B2 (priority 2005, dated 2014).

Tested on: poxvirus
Conditions: in vivo, po

SMILES	activity against poxvirus when given orally
Nc1ccn(C[C@@H](CO)OCP(=O)(O)O)c(=O)n1 [CDV, cidofovir]	inactive when given orally
Nc1ccn(C[C@H]2COP(=O)(O)CO2)c(=O)n1 [cCDV, cyclic cidofovir]	inactive when given orally
